This note sets out measurements from patent US9603833B2, “Benzene or thiophene derivative and use thereof as VAP-1 inhibitor” (R-Tech Ueno, Ltd., priority 2008, dated 2017).

Counter-ions that a name gives are not always drawn. Bounds are passed on as bounds.

What all share (type): biochemical
Experiment [1] addresses human VAP-1 enzyme (SSAO) (Homo sapiens (Human), UniProt Q16853). As to the kind of experiment: Inhibitory effect on human VAP-1 enzyme (SSAO), radiochemical-enzyme assay using 14C-benzylamine. To be noted: human VAP-1 expressed in a cell, cell extract; 14C-benzylamine 1×10^−5 mol/L; 37° C., 2 hours. As for the experimental part:
(§1) The compounds of the present invention obtained in Production Examples were examined for the inhibitory effect on human and rat VAP-1 enzyme (SSAO) by the following method.
(§2) The VAP-1 enzyme (SSAO) activity in both human and rat was measured by a radiochemical-enzyme assay using ^14C-benzylamine as an artificial substrate. Human or rat VAP-1 was cloned from the cDNA library and expressed in a cell. The cell extract was preincubated with a test compound solution (final concentration 1×10^−7-1×10^−10 mol/L) at room temperature for 20 minutes. Then, ^14C-benzylamine (final concentration 1×10^−5 mol/L) was added, and the mixture was incubated at a final volume of 200 μL at 37° C. for 2 hours. The enzyme reaction was stopped by addition of 2 mol/L (200 μL) citric acid. The oxidation product was extracted with 1 mL toluene/ethyl acetate (1:1), and the radioactivity thereof was measured by a liquid scintillation counter.

Experiment [2] has as its target human MAO-A (Homo sapiens (Human), UniProt P21397). As to the kind of experiment: Inhibitory effect on human MAO-A, MAO Detection Kit (Fluoro MAO). To be noted: gene recombinant human MAO-A; fluorescence at 590 nm; 37° C., 2 hrs; read-out: MAO-A inhibition IC50. As to the method:
(§3) The compounds of the present invention obtained in the Production Examples were examined for the inhibitory effect on human monoamineoxydase enzymes (MAO-A and MAO-B) by the following method.
(§4) Gene recombinant human MAO-A and MAO-B enzymes were purchased from Sigma Ltd. The human MAO-A and MAO-B activities were measured using MAO Detection Kit (Fluoro MAO, Cell Technology Inc.). Assay was performed in a 96-well plate. 1× Reaction buffer (40 μl) was added to each well, and 50 μl (5 mg/ml) of MAO-A or MAO-B was added. Then, test compound solutions (final concentration 1×10^−4-1×10^−10 mol/l) (10 μl) were added and the mixtures were incubated at 37° C. for 20 mins. Reaction cocktail (100 μl) was added, and the mixtures (final volume 200 μl) were incubated at 37° C. for 2 hrs. Thereafter, the fluorescence at 590 nm was detected with an excitation wavelength of 570 nm using a multispectro microplate reader (Varioskan, Thermo Fisher Scientific K.K.).

The target in experiment [3] is rat VAP-1 enzyme (SSAO) (Rattus norvegicus (Rat), UniProt O08590). As to the kind of experiment: Inhibitory effect on rat VAP-1 enzyme (SSAO), radiochemical-enzyme assay using 14C-benzylamine. To be noted: rat VAP-1 expressed in a cell, cell extract; 14C-benzylamine 1×10^−5 mol/L; 37° C., 2 hours. As to the method: as §1, §2
In experiment [4] the target is human MAO-B (Homo sapiens (Human), UniProt P27338). As to the kind of experiment: Inhibitory effect on human MAO-B, MAO Detection Kit (Fluoro MAO). Conditions: gene recombinant human MAO-B; fluorescence at 590 nm; 37° C., 2 hrs; read-out: MAO-B inhibition IC50. As for the experimental part: as §3, §4
Chain of human MAO-B (P27338 whole entry): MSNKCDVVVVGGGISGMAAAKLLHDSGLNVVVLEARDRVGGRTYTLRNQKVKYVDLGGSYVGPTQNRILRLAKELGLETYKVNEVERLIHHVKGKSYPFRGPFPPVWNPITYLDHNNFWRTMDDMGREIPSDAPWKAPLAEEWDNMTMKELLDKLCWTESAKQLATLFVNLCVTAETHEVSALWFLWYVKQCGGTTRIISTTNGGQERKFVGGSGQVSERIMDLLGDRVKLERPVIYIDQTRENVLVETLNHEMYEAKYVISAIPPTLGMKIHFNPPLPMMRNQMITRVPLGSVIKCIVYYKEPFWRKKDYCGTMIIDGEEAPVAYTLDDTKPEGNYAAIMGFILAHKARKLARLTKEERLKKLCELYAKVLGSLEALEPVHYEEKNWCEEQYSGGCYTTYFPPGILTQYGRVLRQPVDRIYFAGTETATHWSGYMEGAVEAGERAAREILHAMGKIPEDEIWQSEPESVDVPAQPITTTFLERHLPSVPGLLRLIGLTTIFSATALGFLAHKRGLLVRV

Chain of human VAP-1 enzyme (SSAO) (Q16853 whole entry): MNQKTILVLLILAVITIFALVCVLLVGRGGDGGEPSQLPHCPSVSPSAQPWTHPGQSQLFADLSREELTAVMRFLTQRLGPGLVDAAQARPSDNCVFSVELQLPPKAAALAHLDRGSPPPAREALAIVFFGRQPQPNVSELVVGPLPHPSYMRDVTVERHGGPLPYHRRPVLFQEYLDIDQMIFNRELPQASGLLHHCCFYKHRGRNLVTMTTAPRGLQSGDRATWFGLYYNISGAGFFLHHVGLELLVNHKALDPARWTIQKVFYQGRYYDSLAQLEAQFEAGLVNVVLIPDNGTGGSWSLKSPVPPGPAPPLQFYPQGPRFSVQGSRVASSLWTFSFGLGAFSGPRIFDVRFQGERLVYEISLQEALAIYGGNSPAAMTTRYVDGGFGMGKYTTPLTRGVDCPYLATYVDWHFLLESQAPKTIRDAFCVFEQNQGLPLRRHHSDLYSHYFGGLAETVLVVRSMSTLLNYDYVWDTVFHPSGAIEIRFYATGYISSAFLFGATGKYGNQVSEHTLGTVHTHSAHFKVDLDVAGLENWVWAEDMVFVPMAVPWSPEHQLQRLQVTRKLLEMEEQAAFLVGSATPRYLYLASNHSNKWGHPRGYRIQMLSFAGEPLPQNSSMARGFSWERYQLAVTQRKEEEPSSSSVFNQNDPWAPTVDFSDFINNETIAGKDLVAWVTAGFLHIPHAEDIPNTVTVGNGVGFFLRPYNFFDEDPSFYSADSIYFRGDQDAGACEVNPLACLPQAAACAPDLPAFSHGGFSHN
Chain of rat VAP-1 enzyme (SSAO) (O08590 whole entry): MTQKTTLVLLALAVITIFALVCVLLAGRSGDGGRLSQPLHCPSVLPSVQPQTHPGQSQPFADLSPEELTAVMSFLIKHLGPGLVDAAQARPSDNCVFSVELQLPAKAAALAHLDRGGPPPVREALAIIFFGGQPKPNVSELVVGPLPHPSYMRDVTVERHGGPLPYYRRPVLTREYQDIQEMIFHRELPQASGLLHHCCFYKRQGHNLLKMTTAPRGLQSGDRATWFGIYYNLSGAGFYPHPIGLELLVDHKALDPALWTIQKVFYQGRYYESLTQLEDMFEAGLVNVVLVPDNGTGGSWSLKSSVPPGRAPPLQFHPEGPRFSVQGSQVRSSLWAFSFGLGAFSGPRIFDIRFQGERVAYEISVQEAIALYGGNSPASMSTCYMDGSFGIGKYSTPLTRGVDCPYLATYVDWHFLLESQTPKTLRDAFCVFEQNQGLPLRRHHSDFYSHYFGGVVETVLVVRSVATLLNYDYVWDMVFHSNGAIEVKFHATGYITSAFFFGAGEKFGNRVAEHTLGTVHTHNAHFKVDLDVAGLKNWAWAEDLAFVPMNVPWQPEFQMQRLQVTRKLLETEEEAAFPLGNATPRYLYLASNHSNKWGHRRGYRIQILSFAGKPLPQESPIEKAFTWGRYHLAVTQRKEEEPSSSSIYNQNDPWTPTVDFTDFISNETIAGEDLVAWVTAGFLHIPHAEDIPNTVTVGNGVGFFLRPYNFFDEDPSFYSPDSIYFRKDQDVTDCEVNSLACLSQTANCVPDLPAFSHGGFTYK
Chain of human MAO-A (P21397 whole entry): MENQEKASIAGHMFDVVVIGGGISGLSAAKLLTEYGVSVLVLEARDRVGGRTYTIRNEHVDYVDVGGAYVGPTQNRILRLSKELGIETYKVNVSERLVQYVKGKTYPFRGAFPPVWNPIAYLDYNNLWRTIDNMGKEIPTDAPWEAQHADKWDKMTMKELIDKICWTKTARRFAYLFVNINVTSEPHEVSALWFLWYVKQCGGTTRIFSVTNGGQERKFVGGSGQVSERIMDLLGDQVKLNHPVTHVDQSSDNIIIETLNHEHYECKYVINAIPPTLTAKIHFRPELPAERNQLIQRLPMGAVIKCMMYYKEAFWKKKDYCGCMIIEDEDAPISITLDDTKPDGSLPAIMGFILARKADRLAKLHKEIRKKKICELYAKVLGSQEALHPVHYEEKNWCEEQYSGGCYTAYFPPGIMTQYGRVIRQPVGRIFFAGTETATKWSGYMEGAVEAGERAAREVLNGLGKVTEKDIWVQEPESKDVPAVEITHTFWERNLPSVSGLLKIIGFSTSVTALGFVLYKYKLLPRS

In the case of `NNC(=O)Cc1ccc(CCc2cccc(N3CCNCC3)n2)cc1` [Production Example 51, 2-{4-[2-(6-piperazin-1-ylpyridin-2-yl)ethyl]phenyl}acetohydrazide tetrahydrochloride], the concentration for half-maximal inhibition (IC50) (as a rule, the concentration that inhibits the measured activity by half) in experiment [1] is 9.8 nM; in experiment [2], more than 100000 nM; in experiment [3], 29.4 nM; in experiment [4], more than 100000 nM.

For `CC(=O)N1CCN(c2ccc(CCc3ccc(CC(=O)NN)cc3)nc2)CC1` [Production Example 87, 2-(4-{2-[5-(4-acetylpiperazin-1-yl)pyridin-2-yl]ethyl}phenyl)acetohydrazide trihydrochloride], the 50% inhibitory concentration (IC50) is 3.2 nM in experiment [1], more than 100000 nM in experiment [2], 1.4 nM in experiment [3] and more than 100000 nM in experiment [4].

On to `NNC(=O)Cc1ccc(CCc2ccnc(N3CCNCC3)c2)cc1` [Production Example 105, 2-{4-[2-(2-piperazin-1-ylpyridin-4-yl)ethyl]phenyl}acetohydrazide tetrahydrochloride], for which the IC50 in experiment [1] was 7.3 nM; in experiment [2] it was more than 100000 nM; in experiment [3], 7.2 nM; in experiment [4] it was more than 100000 nM.

For `CN1CCN(c2ccc(CCc3ccc(CC(=O)NN)cc3)cc2)CC1` [Production Example 35, 2-(4-{2-[4-(4-methylpiperazin-1-yl)phenyl]ethyl}phenyl)acetohydrazide trihydrochloride], the IC50 in experiment [2] and in experiment [4] was more than 100000 nM in each case.

Regarding `CC(=O)N1CCN(c2ccc(CCc3cccc(CNC(=O)NN)c3)nc2)CC1` [Production Example 112, N-(3-{2-[5-(4-acetylpiperazin-1-yl)pyridin-2-yl]ethyl}benzyl)hydrazinecarboxamide trihydrochloride], the IC50 in experiment [1] and in experiment [3] was 0.7 nM throughout.

In the case of `NNC(=O)Cc1ccc(CCc2cc(N3CCNCC3)ncn2)cc1` [Production Example 106, 2-{4-[2-(6-piperazin-1-ylpyrimidin-4-yl)ethyl]phenyl}acetohydrazide tetrahydrochloride], the 50% inhibitory concentration (IC50) in experiment [1] came out at 19 nM; in experiment [3], 7.5 nM.

As for `NNC(=O)Cc1ccc(CCc2ccc(N3CCOCC3)nc2)cc1` [Production Example 12, {4-[2-(6-morpholin-4-ylpyridin-3-yl)ethyl]phenyl}acetohydrazide dihydrochloride], the IC50 in experiment [1] amounted to 20.8 nM; in experiment [3], 1.1 nM.

Regarding `CC(=O)N1CCN(c2ccc(CCc3ccc(CNC(=O)NN)cc3)nc2)CC1` [Production Example 109, N-(4-{2-[5-(4-acetylpiperazin-1-yl)pyridin-2-yl]ethyl}benzyl)hydrazinecarboxamide trihydrochloride], the IC50 in experiment [1] stood at 3.7 nM; in experiment [3] it was 1.4 nM.

As to `CC(=O)N1CCN(c2ccc(CCc3ccc(CCC(=O)NN)cc3)nc2)CC1` [Production Example 119, 3-(4-{2-[5-(4-acetylpiperazin-1-yl)pyridin-2-yl]ethyl}phenyl)propanehydrazide trihydrochloride], the IC50 in experiment [1] worked out at 4.7 nM; in experiment [3], 8.7 nM.

Turning to `CCCN(C)c1ccc(CCc2ccc(CC(=O)NN)cc2)cn1` [Production Example 90, 2-[4-(2-{6-[methyl(propyl)amino]pyridin-3-yl}ethyl)phenyl]acetohydrazide trihydrochloride], the 50% inhibitory concentration (IC50) in experiment [1] is 22.1 nM; in experiment [3] it was 1.4 nM.

In the case of `CC(=O)N1CCN(c2ccc(CCc3ccc(COC(=O)NN)cc3F)nc2)CC1` [Production Example 113, 4-{2-[5-(4-acetylpiperazin-1-yl)pyridin-2-yl]ethyl}-3-fluorobenzyl hydrazinecarboxylate trihydrochloride], the figures for the half-inhibitory concentration (IC50) in experiment [1] and in experiment [3] were 0.9 nM and 0.7 nM, respectively.

For `CCN(CCN)c1ccc(CCc2ccc(CC(=O)NN)cc2)cc1` [Production Example 83, 2-[4-(2-{4-[(2-aminoethyl)(ethyl)amino]phenyl}ethyl)phenyl]acetohydrazide trihydrochloride], the results for the IC50 in experiment [1] and in experiment [3] were 20.4 nM and 5.8 nM, respectively.

For the molecule `NNC(=O)Cc1ccc(CCc2ccc(N3CCCC3)nc2)cc1` [Production Example 44, 2-{4-[2-(6-pyrrolidin-1-ylpyridin-3-yl)ethyl]phenyl}acetohydrazide trihydrochloride], the IC50 in experiment [1] worked out at 18.3 nM; in experiment [3], 5.4 nM.

With `NNC(=O)Cc1ccc(CCc2ccc(CN3CCOCC3)cc2)cc1` [Production Example 70, 2-(4-{2-[4-(morpholin-4-ylmethyl)phenyl]ethyl}phenyl)acetohydrazide dihydrochloride], the results for the IC50 in experiment [1] and in experiment [3] were 17.6 nM and 1.3 nM, respectively.

As to `CC(=O)N1CCN(c2ccc(CCc3ccc(OC(=O)NN)cc3)nc2)CC1` [Production Example 110, 4-{2-[5-(4-acetylpiperazin-1-yl)pyridin-2-yl]ethyl}phenyl hydrazinecarboxylate trihydrochloride], the values for the half-maximal inhibitory concentration (IC50) in experiment [1] and in experiment [3] were 3.5 nM and 1.6 nM, respectively.

For the molecule `NNC(=O)Cc1ccc(CCc2csc(C3CCNCC3)n2)cc1` [Production Example 20, 2-{4-[2-(2-piperidin-4-yl-1,3-thiazol-4-yl)ethyl]phenyl}acetohydrazide dihydrochloride], the concentration for half-maximal inhibition (IC50) in experiment [1] turned out to be 23.3 nM; in experiment [3], 5.1 nM.

For `CC(=O)N1CCN(c2ccc(CCc3ccc(CCOC(=O)NN)cc3)nc2)CC1` [Production Example 122, 2-(4-{2-[5-(4-acetylpiperazin-1-yl)pyridin-2-yl]ethyl}phenyl)ethyl hydrazinecarboxylate trihydrochloride], the concentration for half-maximal inhibition (IC50) turned out to be 6.6 nM in experiment [1] and 8 nM in experiment [3].
